Literature values, collected in publication PMC11434290, “Pharmacokinetics and Dose Proportionality Study of a Novel Antiparkinsonian Agent, a 1H-1,2,4-Triazol-3-ylthio-conjugate of Prottremine” (Molecules, 2024).

Key:
[1] = tested on: MPTP-, haloperidol-, and rotenone-induced models; conditions: various mouse and rat models (MPTP-, haloperidol-, rotenone-induced); cited from earlier work
mice = conditions: acute toxicity; cited from earlier work

| Compound | Dose showing antiparkinsonian activity [1] | LD50 (mice) |
| --- | --- | --- |
| N[C@@H](Cc1ccc(O)c(O)c1)C(=O)O [L-DOPA, reference compound] | 50 to 100 mg/kg | – |
| C=C(C)[C@@H]1CC=C(C)[C@@H](O)[C@@H]1O [Prottremine, (1R,2R,6S)-3-methyl-6-(prop-1-en-2-yl)cyclohex-3-ene-1,2-diol] | 20 mg/kg | 4250 mg/kg |
